# Results published in US8450456B2, “Activating peptide of the synthesis of aquaporins and cosmetic and/or pharmaceutical composition containing it” (ISP Investments Inc., priority 2007, dated 2013).
# Ends that are not written are not given here.
# Key:
# [1] = test system: normal human keratinocytes; experiment: Protective effect against osmotic shock caused by sorbitol, viability test by MTT; assay type: cell-based; conditions: sorbitol 250 mM 24 hours, vs non-treated cells
# Method: The aim of this study is to determine the protective effect of the peptide SEQ ID no4 with respect to normal human keratinocytes subjected to an osmotic shock caused by sorbitol. The evaluation of the cellular state is then carried out by a viability test by MTT.
# Normal human keratinocytes in culture were placed in the presence of the peptide SEQ ID no4 at 0.5%, 1% and 3% from a mother solution at 50 ppm, 24 hours before and during the osmotic shock. The hypertonic culture conditions were realized by adding sorbitol at 250 mM to the culture medium for 24 hours. Non-treated controls are carried out.
# Cellular viability tests were then carried out by the MTT technique. The MTT agent (3-[4,5-dimethylthiazol-2-yl]-2,5-diphenyltetrazolium bromide) is used to evaluate the cellular viability. The keratinocytes are incubated in a solution containing 0.1 mg/ml MTT (3-[4,5-dimethylthiazol-2-yl]-2,5-diphenyltetrazolium bromide). This compound is absorbed by the living cells, then metabolized by the mitochondrial enzymes (succinate dehydrogenase) in a blue-violet compound, formazan, which is present in the form of insoluble violet crystals in aqueous medium.
# The formazan crystals are solubilized in DMSO. They produce an absorbance (O.D.) proportional to the number of living cells present in the sample. Measurements of absorbance at 540 nm are then carried out. […]
# aquaporin 3 = experiment: Expression of aquaporin 3 by immunofluorescence in samples of skin ex vivo; assay type: cell-based, human; conditions: 1% solution of a mother solution at 50 ppm applied topically, 24 hours or 48 hours (0.05 ppm); upper layers of the epidermis; vs non-treated control
# Method: The aim of this study is to determine the influence of the peptide SEQ ID no5 on the expression of aquaporin 3 in samples of skin ex vivo.
# Protocol: Samples of human skin are cultured at the air/liquid interface. A 1% solution of a mother solution at 50 ppm of peptide SEQ ID no4 is applied topically, then the samples are incubated for 24 hours or 48 hours.
# These skin samples are then fixed with formaldehyde then enclosed in paraffin. Sections of 2 to 3 μm are then realized. The immunolabeling is carried out after different stages of washing and incubation of these sections. The immunolabeling is carried out by means of a specific polyclonal antibody of aquaporin 3 (anti-aquaporin 3 (C-18): goat polyclonal, sc-9885, Santa Cruz, dilution 1/100th), then a secondary antibody, coupled to a fluorescent marker (alexa-fluor 488 donkey anti-goat Ig G, Molecular Probes, dilution 1/1000th). The skin sections are then examined by epifluorescence microscope (Nikon Eclipse E600 microscope).
# [2] = test system: Biopsies of human skin relieved of their stratum corneum; experiment: Protective effect against induced cutaneous dehydration (tape stripping), ex vivo skin biopsies, H&E histology; assay type: cell-based; conditions: 1% solution of a mother solution at 50 ppm, 24 hours, stripped ex vivo human skin
# Method: The aim of this study is to determine the protective effect of the peptide SEQ ID no5 with respect to ex vivo epidermis cultures subjected to a stress by an induced cutaneous dehydration.
# Biopsies of human skin are relieved of their stratum corneum by stripping by means of an adhesive tape (tape stripping) then held in culture ex vivo, treated with a 1% solution of a mother solution at 50 ppm of peptide SEQ ID no5 for 24 hours. The absence of the stratum corneum induces a high dehydration. Hematoxylin-eosin (H&E) histological sections and stains allow the quality of the cutaneous structures to be evaluated.
# keratin K10 = experiment: Expression of keratin K10 by immunofluorescence on sections of human skin; assay type: cell-based; conditions: 1% solution of a mother solution at 50 ppm applied topically, 24 hours (0.05 ppm); in particular the upper layers of the epidermis
# Text: (§1) The aim of this study is to determine the influence of the peptide SEQ ID no 5 on the expression of claudins and of keratin K10. Claudins are the principal transmembrane proteins of the intercellular adhesion structures known as tight-junction, which play a part in the cellular communication and in epidermal cohesion. Keratin K10 is a specific keratin of the differentiated epidermal layers (stratum granulosum) and is involved in the barrier function of the skin. The quantity of protein was evaluated by immunofluorescence on sections of human skin.
# (§2) Protocol: Samples of human skin are cultured at the air/liquid interface. A 1% solution of a mother solution at 50 ppm of peptide SEQ ID no5 is applied topically, then the samples are incubated for 24 hours.
# (§3) These skin samples are then fixed with formaldehyde, then enclosed in paraffin. Sections of 2 to 3 μm are then realized. The immunolabeling is carried out after different stages of washing and of incubation of these sections.
# The immunolabeling of keratin 10 is carried out by means of a specific antibody of keratin 10 (antibody K10: mouse monoclonal, ref: LHP1, Novocastra, dilution 1/50th), then a secondary antibody, coupled to a fluorescent marker (alexa Fluor 488 donkey anti-mouse IgG, A21202, Molecular Probes, 1/1000th).
# (§4) The skin sections are then examined by epifluorescence microscope (Nikon Eclipse E600 microscope).
# claudin-1 = experiment: Expression of claudin-1 by immunofluorescence on sections of human skin; assay type: cell-based; conditions: 1% solution of a mother solution at 50 ppm applied topically, 24 hours (0.05 ppm); in particular the upper layers of the epidermis
# Text: as §1, §2, §3
# The immunolabeling of claudin-1 is carried out by means of a specific antibody of claudin-1 (claudin-1 antibody: rabbit polyclonal, ref: Ab15098, Abcam, dilution 1/200th), then a secondary antibody, coupled with a fluorescent marker (alexa Fluor 488 donkey anti-rabbit IgG, A21206, Molecular Probes, 1/1000th).
# as §4
Substance,"viability of cells subjected to the osmotic shock (dose dependence) ([1]; peptide at 0.5%, 1% and 3% of a mother solution at 50 ppm)","increase of viability of cells subjected to the osmotic shock ([1]; peptide at 3% of a mother solution at 50 ppm, 24 hours before and during shock) [%]",aquaporin 3 immunofluorescence (aquaporin 3),appearance of the keratinocytes of the basal layer (regeneration) [2],signs of cellular stress and preservation of cutaneous structures (H&E sections) ([2]; vs non-treated biopsies),keratin K10 immunofluorescence (keratin K10),claudin-1 immunofluorescence (claudin-1)
Asn-Pro-Ala-Arg (NPAR) [SEQ ID no4],"increase in the viability, dependent on dose",12,stronger fluorescence,–,–,–,–
Asn-Pro-Ala-Arg-NH2 (NPAR-NH2) [SEQ ID no5],–,–,–,regenerating effect,distinct reduction to the signs of cellular stress and a better preservation of the cutaneous structures,stronger fluorescence,stronger fluorescence
